Test results reported in the NIST ThermoML archive (doi:10.1016/j.jct.2013.02.023).

Details: relaxation calorimetry - Quantum Design PPMS; for molar entropy: 101.33 kPa

O=P([O-])([O-])OP(=O)([O-])[O-].O=P([O-])([O-])OP(=O)([O-])[O-].O=P([O-])([O-])OP(=O)([O-])[O-].[Fe+3].[Fe+3].[Fe+3].[Fe+3] [iron(III) diphosphate]
Details | molar entropy [J/K/mol]
1 K, Crystal 3 | 0.07578
2 K, Crystal 3 | 0.1665
3 K, Crystal 3 | 0.2869
4 K, Crystal 3 | 0.4556
5 K, Crystal 3 | 0.6947
6 K, Crystal 3 | 1.027
7 K, Crystal 3 | 1.472
8 K, Crystal 3 | 2.047
9 K, Crystal 3 | 2.754
10 K, Crystal 3 | 3.591
11 K, Crystal 3 | 4.553
12 K, Crystal 3 | 5.629
13 K, Crystal 3 | 6.809
14 K, Crystal 3 | 8.084
15 K, Crystal 3 | 9.437
16 K, Crystal 3 | 10.86
17 K, Crystal 3 | 12.36
18 K, Crystal 3 | 13.92
19 K, Crystal 3 | 15.55
20 K, Crystal 3 | 17.25
25 K, Crystal 3 | 26.52
30 K, Crystal 2 | 36.76
35 K, Crystal 2 | 47.46
40 K, Crystal 2 | 59.06
45 K, Crystal 2 | 71.73
50 K, Crystal 1 | 84.46
55 K, Crystal 1 | 93.95
60 K, Crystal 1 | 103.22
65 K, Crystal 1 | 112.55
70 K, Crystal 1 | 121.98
75 K, Crystal 1 | 131.56
80 K, Crystal 1 | 141.27
85 K, Crystal 1 | 151.12
90 K, Crystal 1 | 161.1
95 K, Crystal 1 | 171.2
100 K, Crystal 1 | 181.43
110 K, Crystal 1 | 202.07
120 K, Crystal 1 | 222.81
130 K, Crystal 1 | 243.5
140 K, Crystal 1 | 264.06
150 K, Crystal 1 | 284.46
160 K, Crystal 1 | 304.66
170 K, Crystal 1 | 324.67
180 K, Crystal 1 | 344.47
190 K, Crystal 1 | 364.05
200 K, Crystal 1 | 383.42
210 K, Crystal 1 | 402.56
220 K, Crystal 1 | 421.48
230 K, Crystal 1 | 440.17
240 K, Crystal 1 | 458.61
250 K, Crystal 1 | 476.82
260 K, Crystal 1 | 494.79
270 K, Crystal 1 | 512.5
273.15 K, Crystal 1 | 518.03
280 K, Crystal 1 | 529.97
290 K, Crystal 1 | 547.19
298.15 K, Crystal 1 | 561.03
300 K, Crystal 1 | 564.15

Details | Triple point temperature [K]
Crystal 2 | 47.6
Crystal 3 | 27.3
